Patent publication US10077237B2 (Sanofi, priority 2013, dated 2018)
Values joined by “and” are separate entries in the source; they are usually repeats but may differ in a detail not shown here. Equal values may be shown once. Where a name gives a salt, the structure may show the parent alone.

Biological target: T1, recombinant human AMPK complex, containing α2β1γ2 (Homo sapiens, UniProt P54646+Q9Y478)
T1 construct: hsAMPKα2-552-His, hsAMPKβ1-2-270 and hsAMPKγ-2-569 respectively; hsAMPKβ1-2-270; hsAMPKγ-2-569; His (C); made in house; host or cells: Spodoptera frugiperda Sf21 (baculovirus)
Test: AMPK in vitro activation assay (HTRF)
Assay type: biochemical
Conditions: for EC50: HTRF, recombinant human α2β1γ2 AMPK, 200 μM ATP, biotinylated ACC-CREBp peptide, repeat determinations on separate lines; for Emax: potentiation of AMPK activity as percent over the basal signal (without compound)
Experimental: The recombinant human AMPK complex, containing α2β1γ2 was obtained from baculovirus expression system and generated by cotransfection in Spodoptera frugiperda 21 (Sf21). […] were produced in serum free medium (SF900 II, Invitrogen) for 82 hours after a triple infection at a multiplicity of infection (M.O.I.) of 0.05, 0.06 and 0.045 for hsAMPKα2-552-His, hsAMPKβ1-2-270 and hsAMPKγ-2-569 respectively. Cells were harvested by centrifugation at 1,000×g for 10 minutes at 4° C. and stored at −80° C. The insect cell pellet from 8 liters of culture was resuspended and homogenized in 580 ml of lysis buffer (20 mM Hepes pH 7.5, 150 mM NaCl, 10 mM imidazole, 50 mM NaF, 10% Glycerol and supplemented with EDTA free proteases inhibitor cocktail Roche). The AMPK complex was partially purified using an affinity chromatography under a Ni-NTA Agarose column equilibrated in the lysis buffer and eluted with a gradient (0 to 400 mM) of Imidazol.
A homogeneous time-resolved fluorescence (HTRF) assay was used (Li et al, Anal. Biochem. (2003) 321, 151-156) to identify compounds with stimulating activity for the recombinant human AMPK. Enzyme reaction was performed into a 96-well microtiter plate. First, 20 μL of test compounds in 0.5% DMSO were dispensed followed by 10 μL of protein in 50 mM HEPES buffer at pH 7.0, 100 mM NaCl, 5 mM MgCl2, 0.01% BSA, 0.8 mM DTT. After, 30 min incubation at room temperature, the reaction was initiated by the addition of 10 μL of a solution containing 200 μM of ATP as donor substrate, 2 μM or 0.08 μM of biotinylated ACC-CREBp peptide (PolyPeptide) as acceptor. Plates were then incubated 45 min at 37° C. The reaction was terminated by the addition of 40 μl detection mixture containing Eu^3+ cryptate-conjugated anti-pS^133-CREB antibody and streptavidine-XL665 (CisBio). Plates were further incubated for 2 h30 at room temperature. The fluorescence signal was measured using an Envision multireader (Perkin Elmer). The non-specific signal was obtained without substrates. Potentiation of AMPK activity was expressed as a percent over the basal signal (without compound) from which an EC50 value was determined.
The EC50 of a graded dose response curve represents the concentration of a compound where 50% of its maximal effect is observed.

T1 sequence (P54646 2-552): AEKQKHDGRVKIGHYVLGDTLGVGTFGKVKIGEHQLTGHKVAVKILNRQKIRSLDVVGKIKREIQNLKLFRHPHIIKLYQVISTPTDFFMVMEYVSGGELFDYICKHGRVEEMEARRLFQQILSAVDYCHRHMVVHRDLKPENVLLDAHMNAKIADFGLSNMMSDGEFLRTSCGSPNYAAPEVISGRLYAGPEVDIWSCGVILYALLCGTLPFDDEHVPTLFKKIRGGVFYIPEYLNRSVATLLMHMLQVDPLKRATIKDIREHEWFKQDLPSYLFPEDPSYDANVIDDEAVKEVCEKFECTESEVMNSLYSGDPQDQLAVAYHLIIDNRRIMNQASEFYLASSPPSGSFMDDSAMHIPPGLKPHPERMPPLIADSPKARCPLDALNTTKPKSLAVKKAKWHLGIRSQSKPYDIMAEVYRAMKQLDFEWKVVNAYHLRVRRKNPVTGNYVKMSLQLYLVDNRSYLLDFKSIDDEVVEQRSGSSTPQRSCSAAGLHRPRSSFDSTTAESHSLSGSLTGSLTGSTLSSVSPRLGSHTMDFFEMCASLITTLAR
T1 sequence (Q9Y478 2-270): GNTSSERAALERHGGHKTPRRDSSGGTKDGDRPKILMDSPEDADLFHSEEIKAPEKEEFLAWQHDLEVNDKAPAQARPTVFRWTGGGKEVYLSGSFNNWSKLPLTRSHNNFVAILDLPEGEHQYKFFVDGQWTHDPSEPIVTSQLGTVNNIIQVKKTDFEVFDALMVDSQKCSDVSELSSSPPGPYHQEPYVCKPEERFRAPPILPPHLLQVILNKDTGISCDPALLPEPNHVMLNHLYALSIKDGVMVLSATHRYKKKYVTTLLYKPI
T1 sequence (Q9UGJ0 2-569 partner limits assumed): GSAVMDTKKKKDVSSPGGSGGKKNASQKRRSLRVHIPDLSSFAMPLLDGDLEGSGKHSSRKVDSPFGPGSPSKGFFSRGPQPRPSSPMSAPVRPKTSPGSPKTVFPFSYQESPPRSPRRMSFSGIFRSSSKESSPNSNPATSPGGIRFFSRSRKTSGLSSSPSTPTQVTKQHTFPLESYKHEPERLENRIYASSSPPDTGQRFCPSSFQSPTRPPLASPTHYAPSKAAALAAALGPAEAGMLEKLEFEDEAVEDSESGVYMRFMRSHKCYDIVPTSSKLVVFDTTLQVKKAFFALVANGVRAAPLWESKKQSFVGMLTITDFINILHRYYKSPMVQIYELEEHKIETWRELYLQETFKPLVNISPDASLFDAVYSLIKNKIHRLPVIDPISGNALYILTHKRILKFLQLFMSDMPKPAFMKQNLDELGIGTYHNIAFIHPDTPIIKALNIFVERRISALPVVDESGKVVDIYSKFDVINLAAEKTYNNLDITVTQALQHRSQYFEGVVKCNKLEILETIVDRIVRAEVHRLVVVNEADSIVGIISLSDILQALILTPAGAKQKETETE

Compound	EC50	Emax [%]
CCc1ccc(-c2cc3c(cc2Cl)NC(=O)C3=C(O)c2cc(C)no2)cc1 [Compound 64, 6-Chloro-5-(4-ethyl-phenyl)-3-[1-hydroxy-1-(3-methyl-isoxazol-5-yl)-methylidene]-1,3-dihydro-indol-2-one]	1630 nM	141
Cc1cc(C(O)=C2C(=O)Nc3cc(F)c(-c4ccc(N5CCOCC5)cc4)cc32)on1 [Compound 29, 6-Fluoro-3-[1-hydroxy-1-(3-methyl-isoxazol-5-yl)-methylidene]-5-(4-morpholin-4-yl-phenyl)-1,3-dihydro-indol-2-one]	58 nM	157
O=C1Nc2cc(Cl)c(-c3ccc(C4(CO)CC4)cc3)cc2C1=C(O)c1ccccc1F [Compound 46, 6-Chloro-3-[1-(2-fluoro-phenyl)-1-hydroxy-methylidene]-5-[4-(1-hydroxymethyl-cyclopropyl)-phenyl]-1,3-dihydro-indol-2-one]	6 nM	95
O=C1Nc2cc(Cl)c(-c3ccc(N4CCOCC4)cc3)cc2C1=C(O)c1ccccc1 [Compound 43, 6-Chloro-3-[1-hydroxy-1-phenyl-methylidene]-5-(4-morpholin-4-yl-phenyl)-1,3-dihydro-indol-2-one]	220 nM	170
CN(C)c1ccc(-c2cc3c(cc2Cl)NC(=O)C3=C(O)c2cccc(C(=O)O)c2)cc1 [Compound 8, 3-{[6-Chloro-5-(4-dimethylamino-phenyl)-2-oxo-1,2-dihydro-indolylidene]-hydroxy-methyl}-benzoic acid]	33 nM	124
Cc1cc(C(O)=C2C(=O)Nc3cc(Cl)c(-c4ccc(C5CC5)cc4)cc32)on1 [Compound 22, 6-Chloro-5-(4-cyclopropyl-phenyl)-3-[1-hydroxy-1-(3-methyl-isoxazol-5-yl)-methylidene]-1,3-dihydro-indol-2-one]	250 nM	147
N#Cc1cccc(C(O)=C2C(=O)Nc3cc(Cl)c(-c4ccc(N5CCOCC5)cc4)cc32)c1 [Compound 18, 3-{[6-Chloro-5-(4-morpholin-4-yl-phenyl)-2-oxo-1,2-dihydro-indolylidene]-hydroxy-methyl}-benzonitrile]	190 nM	135
CC(C)Oc1cc(C(O)=C2C(=O)Nc3cc(Cl)c(-c4ccc(C5CC(O)C5)cc4)cc32)on1 (stereo not drawn) [Compound 166, 6-chloro-5-[4-(3-hydroxycyclobutyl)phenyl]-3-[hydroxy-(3-isopropoxyisoxazol-5-yl)methylene]indolin-2-one]	13 nM	207
Cc1cc(C(O)=C2C(=O)Nc3cc(Cl)c(-c4ccc(OCC5CCO5)cc4)cc32)on1 (stereo not drawn) [Compound 115, 6-chloro-3-[hydroxy-(3-methylisoxazol-5-yl)methylene]-5-[4-(oxetan-2-ylmethoxy)phenyl]indolin-2-one]	30 nM	149
COc1cccc(-c2ccc(-c3cc4c(cc3Cl)NC(=O)C4=C(O)c3cc(OC(C)C)no3)cc2)c1O [Compound 109, 6-chloro-3-[hydroxy-(3-isopropoxyisoxazol-5-yl)methylene]-5-[4-(2-hydroxy-3-methoxy-phenyl)phenyl]indolin-2-one]	0.6 nM	165
COc1cc(C(O)=C2C(=O)Nc3cc(Cl)c(-c4ccc(OCc5cncs5)cc4)cc32)on1 [Compound 136, 6-chloro-3-[hydroxy-(3-methoxyisoxazol-5-yl)methylene]-5-[4-(thiazol-5-ylmethoxy)phenyl]indolin-2-one]	26 nM	309
COCCOc1cc(C(O)=C2C(=O)Nc3cc(Cl)c(-c4ccc(-c5cccc(OC)c5O)cc4)cc32)on1 [Compound 79, 6-chloro-3-[hydroxy-[3-(2-methoxyethoxy)isoxazol-5-yl]methylene]-5-[4-(2-hydroxy-3-methoxy-phenyl)phenyl]indolin-2-one]	38 nM	133
Cc1cc(C(O)=C2C(=O)Nc3cc(Cl)c(-c4ccc(N5CCOCC5)cc4)cc32)on1 [Compound 14, 6-Chloro-3-[1-hydroxy-1-(3-methyl-isoxazol-5-yl)-methylidene]-5-(4-morpholin-4-yl-phenyl)-1,3-dihydro-indol-2-one]	38 nM	283
Cc1cc(C(O)=C2C(=O)Nc3cc(Cl)c(-c4ccc(O)c(F)c4)cc32)on1 [Compound 44, 6-Chloro-5-(3-fluoro-4-hydroxy-phenyl)-3-[1-hydroxy-1-(3-methyl-isoxazol-5-yl)-methylidene]-1,3-dihydro-indol-2-one]	470 nM	165
Cc1cc(C(O)=C2C(=O)Nc3cc(Cl)c(-c4ccc(OC(F)(F)F)cc4)cc32)on1 [Compound 58, 6-Chloro-3-[1-hydroxy-1-(3-methyl-isoxazol-5-yl)-methylidene]-5-(4-trifluoromethoxy-phenyl)-1,3-dihydro-indol-2-one]	1400 nM	212
CN1CCN(c2cccc(C(O)=C3C(=O)Nc4cc(Cl)c(-c5ccc(N6CCOCC6)cc5)cc43)c2)CC1 [Compound 93, 6-chloro-3-[hydroxy-[3-(4-methylpiperazin-1-yl)phenyl]methylene]-5-(4-morpholinophenyl)indolin-2-one hydrochloride]	58 nM	186
COc1cc(C(O)=C2C(=O)Nc3cc(Cl)c(-c4ccc(C5(CO)CC5)c(F)c4)cc32)on1 [Compound 96, 6-chloro-5-[3-fluoro-4-[1-(hydroxymethyl)cyclopropyl]phenyl]-3-[hydroxy-(3-methoxyisoxazol-5-yl)methylene]indolin-2-one]	0.3 nM and 0.2 nM	–
O=C1Nc2cc(Cl)c(-c3ccc(C4(CO)CC4)cc3)cc2C1=C(O)c1cncc(F)c1 [Compound 142, 6-chloro-3-[(5-fluoro-3-pyridyl)hydroxy-methylene]-5-[4-[1-(hydroxymethyl)cyclopropyl]phenyl]indolin-2-one]	6 nM	239
COc1cc(F)c(C(O)=C2C(=O)Nc3cc(Cl)c(-c4ccc(N5CCOCC5)cc4)cc32)cc1F [Compound 108, 6-chloro-3-[(2,5-difluoro-4-methoxy-phenyl)hydroxy-methylene]-5-(4-morpholinophenyl)indolin-2-one]	6 nM	141
O=C1Nc2cc(F)c(-c3ccc(C4(CO)CC4)cc3)cc2C1=C(O)c1cc(C2CC2)no1 [Compound 119, 3-[(3-cyclopropylisoxazol-5-yl)hydroxy-methylene]6-fluoro-5-[4-[1-(hydroxymethyl)cyclopropyl]phenyl]indolin-2-one]	0.6 nM	133
Cc1cc(C(O)=C2C(=O)Nc3cc(Cl)c(-c4ccc(-c5ccco5)cc4)cc32)on1 [Compound 65, 6-Chloro-5-(4-furan-2-yl-phenyl)-3-[1-hydroxy-1-(3-methyl-isoxazol-5-yl)methylidene]-1,3-dihydro-indol-2-one]	120 nM	113
O=C1Nc2cc(Cl)c(-c3ccc(N4CCOCC4)cc3)cc2C1=C(O)c1ccccc1F [Compound 32, 6-Chloro-3-[1-(2-fluoro-phenyl)-1-hydroxy-methylidene]-5-(4-morpholin-4-yl-phenyl)-1,3-dihydro-indol-2-one]	140 nM	112
O=C1Nc2cc(Cl)c(-c3ccc(N4CCOCC4)cc3)cc2C1=C(O)c1cc(C2CC2)on1 [Compound 62, 6-Chloro-3-[1-(5-cyclopropyl-isoxazol-3-yl)-1-hydroxy-methylidene]-5-(4-morpholin-4-yl-phenyl)-1,3-dihydro-indol-2-one]	98 nM	254
Cc1cc(C(O)=C2C(=O)Nc3cc(Cl)c(-c4ccc(C5CCCO5)cc4)cc32)on1 (stereo not drawn) [Compound 68, 6-Chloro-3-[1-hydroxy-1-(3-methyl-isoxazol-5-yl)methylidene]-5-[4-(tetrahydro-furan-2-yl)phenyl]-1,3-dihydro-indol-2-one]	150 nM	208
COc1ccc(C(O)=C2C(=O)Nc3cc(Cl)c(-c4ccc(C5(CO)CC5)cc4)cc32)cn1 [Compound 116, 6-chloro-3-[hydroxy-(6-methoxy-3-pyridyl)methylene]-5-[4-[1-(hydroxymethyl)cyclopropyl]phenyl]indolin-2-one hydrochloride]	0.3 nM and 0.8 nM	–
